These results are taken from US8796300B2, “Therapeutic compounds” (Rutgers, the State University of New Jersey, priority 2009, dated 2014).

The test system of data set [1] is Human Telomeric G-Quadruplex DNA d(T2AG3)4. The experiment in a line: UV melting, thermal stabilization of G-quadruplex DNA (Test A). Type of data set: binding. Conditions: pH 7.5, 50 mM K+; Tm of the drug-DNA complex minus that of the DNA alone; absorbance at 295 nm. From the text:
(§1) Test A. Selective Stabilization of G-Quadruplex DNA Analyses can be performed to determine the ability of the compounds to selectively bind and thermally stabilize quadruplex relative to duplex DNA. Toward this end, the UV absorbances of the DNA molecules are monitored as a function of temperature in the absence and presence of compound. The melting of duplex DNA is generally associated with a hyperchromic shift at 260 nm, while the melting of quadruplex DNA is associated with a hypochromic shift at 295 nm. Thus, the temperature-dependent absorbances of duplex DNA are monitored at 260 nm, with the corresponding quadruplex absorbances being monitored at 295 nm. Salmon testes DNA can be used as a representative model of duplex DNA and d([…])4 can be used as a representative model of quadruplex DNA. All UV melting studies are conducted at physiological pH (7.4) in the presence of potassium ions at physiologically relevant concentrations. Representative compounds of formula I (compounds 6, 32, and 33) were evaluated for their abilities to selectively bind and stabilize G-quadruplex relative to duplex DNA. […] By contrast, none of the compounds exert any impact on the thermal stability of the DNA duplex (ΔTm=0° C. for all three compounds).

Another data set has as its system Salmon Testes Duplex DNA. The experiment in a line: UV melting, thermal stabilization of duplex DNA (Test A). The following applies: pH 7.5, 50 mM K+; Tm of the drug-DNA complex minus that of the DNA alone; absorbance at 260 nm. Type of data set: binding.
Text: as §1

Data set [2] relates to KB3-1 human epidermoid carcinoma tumor cells. The experiment in a line: MTT cytotoxicity assay (Test B). The class given is cell-based. The following applies: KB 3-1, 96 h, cells cultured 4 days. From the text:
(§2) Test B. Evaluation of G-Quadruplex Stabilizers using the MTT Assay.
(§3) Cell lines are selected based upon one or more factors including data on their relative telomerase activity, varied organ sites, available comparative data, and their ability to form solid tumors in athymic nude mice. The advantage of an MTT assay is that the cytotoxic/cytostatic activities can be readily determined.
(Tetrazolium assays rely on reduction of a dye to a coloured formazan, in cell work by metabolically active cells.)

In data set [3] the test system is human lymphoblastoma cell line RPMI 8402. Kind of data set: MTT cytotoxicity assay (Test B). The class given is cell-based. The following applies: RPMI 8402, 96 h, cells cultured 4 days.
Text: as §2, §3

Data set [4] deals with MDA-MB-435 human tumor xenografts (human melanoma cells). The experiment in a line: Human tumor xenograft athymic nude mouse model (Test C). Type of data set: in vivo, female NCR/NU NU mice. The following applies: ip injection; athymic nude mice; tumor volume. The method, then: Test C. Evaluation of G-Quadruplex Stabilizers in the Human Tumor Xenograft Athymic Nude Mouse Model.
Compound 33 inhibited the growth of MDA-MD-435 human tumor xenografts (developed from human melanoma cells) in vivo by more than 50% when administered by ip injection. Bioassays were performed using female NCR/NU NU mice of approximately 9 weeks of age as obtained from Taconic Farms, Inc. (Germantown, N.Y., USA). Mice were housed 4 per cage in laminar flow HEPA filtered microisolator caging (Allentown Caging Equipment Co., Allentown, N.J., USA). Mice were fed Purina autoclavable breeder chow #5021 and given drinking water, purified by reverse-osmosis, ad libitum. Five days after arrival within the animal facility, the mice were inoculated on the right flank with 1.5×10^6 MDA-MB-435 tumor cells in 0.1 mL of RPMI 1640 Media by sc injection (25 gauge needle×⅝″). The MDA-MB-435 cells were grown in 75 cm^2 flasks using RPMI 1640 Media and 10% fetal bovine serum. Tumors were of sufficient size at 19-20 days after inoculation. Tumor-bearing mice were evenly matched in each experimental group based on tumor volume. Tumor volume was calculated by measuring the tumor with a microcaliper. The length (l) is the maximum two dimensional distance of the tumor and the width (w) is the maximum distance perpendicular to this length measured in mm. Tumor volume was calculated using the formula (l*w^2)/2.

The next data set has as its target telomerase. The following applies: read-out: telomerase inhibitory activity IC50; cited from earlier work.
In another data set the test system is SK-N-AS. Conditions: human neuroblastoma cell line; read-out: cytotoxicity IC50 SK-N-AS; cited from earlier work.
The next data set deals with LAN5. Conditions: human neuroblastoma cell line; read-out: cytotoxicity IC50 LAN5; cited from earlier work.
Another data set relates to WAC2. The following applies: human neuroblastoma cell line; read-out: cytotoxicity IC50 WAC2; cited from earlier work.
A further data set relates to LAN1. Conditions: human neuroblastoma cell line; read-out: cytotoxicity IC50 LAN1; cited from earlier work.
For another data set, the system named is MiaPaCa. The following applies: human pancreatic carcinoma; read-out: cytotoxicity IC50 MiaPaCa; cited from earlier work.

With `O=C1NCc2cccc(c2)CNC(=O)c2coc(n2)-c2coc(n2)-c2cccc(n2)-c2nc(co2)-c2nc1co2` [Compound 6], the melting point – broadly, the temperature, or range, at which the solid turns liquid – was 320 to 324 °C (dec.). For the same molecule, the “Human Telomeric G-Quadruplex DNA ΔTm” value in data set [1] was 20.5 °C. In addition, the “Salmon Testes Duplex DNA ΔTm” value in the data set on Salmon Testes Duplex DNA came to 0 °C. In addition, the half-maximal inhibitory concentration (IC50) (commonly the point on the concentration scale where inhibition reaches its midpoint) in data set [2] was determined as 1.2 µM. In data set [3], this molecule came in with an IC50 of 1.05 µM.

Consider `O=C1NCc2cccc(n2)CNC(=O)c2coc(n2)-c2coc(n2)-c2cccc(n2)-c2nc(co2)-c2nc1co2` [Compound 7], for which the melting point is 330 °C (dec.). This molecule also gave a 50% inhibitory concentration (IC50) in data set [2] of over 5 µM. Further, in [3], the IC50 was over 5 µM.

`O=C1NCCNCCNC(=O)c2coc(n2)-c2coc(n2)-c2cccc(n2)-c2nc(co2)-c2nc1co2` [Compound 8]: the melting point was 276 °C (dec.). In data set [2], this molecule yielded an IC50 of 4 µM. For the same molecule, the 50% inhibitory concentration (IC50) in [3] was over 10 µM.

For `O=C1NCc2cccc(c2)CNC(=O)c2coc(n2)-c2csc(n2)-c2cccc(n2)-c2nc(co2)-c2nc1co2` [Compound 14], the melting point was 274 to 275 °C (dec.). In addition, the IC50 in data set [2] came to 0.26 µM. Moreover, it took 1 µM to reach half-maximal inhibition in data set [3] (IC50).

Take `O=C1NCc2cccc(c2)CNC(=O)c2coc(n2)-c2csc(n2)-c2cccc(n2)-c2nc(cs2)-c2nc1co2` [Compound 22]: the melting point was 245 °C. In data set [2], this molecule showed an IC50 of over 10 µM. Further, the IC50 in [3] is over 10 µM.

Turning to `O=C1NCc2cccc(c2)CNC(=O)c2coc(n2)-c2coc(n2)-c2cc(Br)cc(n2)-c2nc(co2)-c2nc1co2` [Compound 28], the melting point was in the range of 211 to 213 °C. The molecule also displayed a half-maximal inhibitory concentration (IC50) in data set [2] of 0.15 µM. Besides, the half-inhibitory concentration (IC50) in data set [3] amounted to 0.3 µM.

`O=C1NCc2cc(Br)cc(c2)CNC(=O)c2coc(n2)-c2coc(n2)-c2cccc(n2)-c2nc(co2)-c2nc1co2` [Compound 29] displayed a melting point of 248 to 250 °C. Besides, the 50% inhibitory concentration (IC50) in data set [2] was 0.06 µM. The IC50 in [3] came to 0.3 µM.

Consider `O=C(NCCc1cc2cc(c1)CNC(=O)c1coc(n1)-c1coc(n1)-c1cccc(n1)-c1nc(co1)-c1nc(co1)C(=O)NC2)OCc1ccccc1` [Compound 30], for which the melting point is 196 to 198 °C. In data set [2], this molecule came in with an IC50 of 0.12 µM. Moreover, in [3], inhibition was half-maximal at 0.12 µM (IC50).

For the molecule `O=C1NCc2cc(CCNC(=O)C(F)(F)F)cc(c2)CNC(=O)c2coc(n2)-c2coc(n2)-c2cccc(n2)-c2nc(co2)-c2nc1co2` [Compound 31], the melting point is 290 °C (dec.). In data set [2], this molecule displayed a concentration for half-maximal inhibition (IC50) of 0.07 µM. This molecule also had a half-inhibitory concentration (IC50) in data set [3] of 0.17 µM.

Take `NCCc1cc2cc(c1)CNC(=O)c1coc(n1)-c1coc(n1)-c1cccc(n1)-c1nc(co1)-c1nc(co1)C(=O)NC2` [Compound 32]: the melting point was 277 to 280 °C (dec.). This molecule also yielded an IC50 in data set [2] of 0.03 µM. Besides, the IC50 in [3] came to 0.09 µM.

`CN(C)CCc1cc2cc(c1)CNC(=O)c1coc(n1)-c1coc(n1)-c1cccc(n1)-c1nc(co1)-c1nc(co1)C(=O)NC2` [Compound 33]: the melting point was 295 °C (dec.). The “Human Telomeric G-Quadruplex DNA ΔTm” value in data set [1] was 31.5 °C. Moreover, the “Salmon Testes Duplex DNA ΔTm” value in the data set on Salmon Testes Duplex DNA worked out at 0 °C. Moreover, the half-maximal inhibitory concentration (IC50) in data set [2] is 0.04 µM. This molecule also yielded a half-inhibitory concentration (IC50) in data set [3] of 0.18 µM. In [4], the “inhibition of growth of human tumor xenografts in vivo” value is reported as “more than 50%”.

For `O=C1NCc2cc(Br)cc(c2)CNC(=O)c2coc(n2)-c2coc(n2)-c2cc(Br)cc(n2)-c2nc(co2)-c2nc1co2` [Compound 34], the melting point was 250 °C (dec.). In [2], this molecule registered an IC50 of over 10 µM. Besides, the 50% inhibitory concentration (IC50) in data set [3] was over 10 µM.

Molecule `O=C(NCCc1cc2cc(c1)CNC(=O)c1coc(n1)-c1coc(n1)-c1cc(Br)cc(n1)-c1nc(co1)-c1nc(co1)C(=O)NC2)OCc1ccccc1` [Compound 35] yielded a melting point of 204 to 205 °C. Further, 0.6 µM corresponded to half-maximal inhibition in data set [2] (IC50). The molecule further showed an IC50 in data set [3] of 1 µM.

In the case of `O=C1NCc2cc(CCNC(=O)C(F)(F)F)cc(c2)CNC(=O)c2coc(n2)-c2coc(n2)-c2cc(Br)cc(n2)-c2nc(co2)-c2nc1co2` [Compound 36], the melting point is 305 to 307 °C (dec.). Also, in [2], the IC50 worked out at 4 µM. This molecule gave a half-maximal inhibitory concentration (IC50) in data set [3] of over 10 µM.

Take `O=C1NCc2cccc(c2)CNC(=O)c2coc(n2)-c2coc(n2)-c2cc(OCCCN3C(=O)c4ccccc4C3=O)cc(n2)-c2nc(co2)-c2nc1co2` [Compound 43]: the melting point is 249 to 252 °C (dec.). For the same molecule, the half-maximal inhibitory concentration (IC50) in data set [2] worked out at 0.4 µM. In [3], this molecule showed an IC50 of 4.5 µM.

For `O=C1NCc2cc(Br)cc(c2)CNC(=O)c2coc(n2)-c2coc(n2)-c2cc(OCCCN3C(=O)c4ccccc4C3=O)cc(n2)-c2nc(co2)-c2nc1co2` [Compound 44], the melting point was 289 to 290 °C (dec.). The molecule also came in with an IC50 in [2] of 1 µM. Also, half-maximal inhibition in [3] (IC50) required 1 µM.

Turning to `O=C(NCCc1cc2cc(c1)CNC(=O)c1coc(n1)-c1coc(n1)-c1cc(OCCCN3C(=O)c4ccccc4C3=O)cc(n1)-c1nc(co1)-c1nc(co1)C(=O)NC2)OCc1ccccc1` [Compound 45], the melting point was in the range of 167 to 170 °C. For the same molecule, the 50% inhibitory concentration (IC50) in data set [2] is over 10 µM. This molecule came in with an IC50 in data set [3] of over 10 µM.

On to `NCCCOc1cc2nc(c1)-c1nc(co1)-c1nc(co1)C(=O)NCc1cccc(c1)CNC(=O)c1coc(n1)-c1coc-2n1` [Compound 46], for which the melting point is 237 to 239 °C (dec.). This molecule also had a half-inhibitory concentration (IC50) in data set [2] of 3 µM. The IC50 in data set [3] stood at 5 µM.

Take `CC(=O)NCCCOc1cc2nc(c1)-c1nc(co1)-c1nc(co1)C(=O)NCc1cccc(c1)CNC(=O)c1coc(n1)-c1coc-2n1` [Compound 47]: the concentration for half-maximal inhibition (IC50) is 10 µM in data set [2] and over 10 µM in [3].

Regarding `CN(C)c1cc2cc(c1)CNC(=O)c1coc(n1)-c1coc(n1)-c1cccc(n1)-c1nc(co1)-c1nc(co1)C(=O)NC2` [Compound 48], the IC50 was 0.03 µM in [2] and 0.06 µM in data set [3].

Take `CC(C)(C)OC(=O)NCCc1cc2cc(c1)CNC(=O)c1coc(n1)-c1coc(n1)-c1cccc(c1)-c1nc(co1)-c1nc(co1)C(=O)NC2` [Compound 59]: the IC50 is 3.1 µM in [2] and 3.6 µM in data set [3].

For the molecule `CN(C)CCc1cc2cc(c1)CNC(=O)c1coc(n1)-c1coc(n1)-c1cccc(c1)-c1nc(co1)-c1nc(co1)C(=O)NC2` [Compound 61], the 50% inhibitory concentration (IC50) in data set [2] was determined as 0.4 µM; in data set [3], 2 µM.

As for `CN(C)CCc1oc2nc1C(=O)NCc1cccc(c1)CNC(=O)c1nc(oc1CCN(C)C)-c1coc(n1)-c1cccc(n1)-c1nc-2co1` [Compound 78], the 50% inhibitory concentration (IC50) in data set [2] is 0.1 µM; in [3], 0.2 µM.

In the case of `Cc1oc2nc1-c1nc(co1)-c1nc(co1)-c1nc(co1)-c1nc(co1)-c1nc(co1)C1=NC(CS1)c1nc-2c(C)o1` (stereo not drawn) [Telomestatin], the IC50 at telomerase was 0.005 µM; in the data set with SK-N-AS it was 0.8 µM; in the data set on LAN5, 2.5 µM; in the data set with WAC2, 3.2 µM; in the data set on LAN1, 4 µM; in the data set with MiaPaCa it was 0.5 µM.
